Patent US6605630B1, “Antibiotic oxazolidinone derivatives” (Syngenta Limited, priority 1997, dated 2003)

How the values were obtained:
Bacillus subtilis = test system: Bacillus subtilis
Source text: (§1) The activity is described in terms of the minimum inhibitory concentration (MIC) determined by the agar-dilution technique with an inoculum size of 10^4 CFU/spot.

Enterococcus faecalis = details: agar with 5% defibrinated horse blood, 10^4 CFU/spot, 37° C., 5% carbon dioxide, 48 hours
Experimental: as §1
(§2) Streptococci and enterococci were tested on agar supplemented with 5% defibrinated horse blood, an inoculum of 10^4 CFU/spot and an incubation temperature of 37° C. in an atmosphere of 5% carbon dioxide for 48 hours-blood is required for the growth of some of the test organisms.

[1] = test system: Streptococcus pyogenes C203; details: agar with 5% defibrinated horse blood, 10^4 CFU/spot, 37° C., 5% carbon dioxide, 48 hours
Experimental: as §1, §2

[2] = test system: Coagulase Negative Staphylococci MR
Experimental: as §1
(§3) Staphylococci were tested on agar, using an inoculum of 10^4 CFU/spot and an incubation temperature of 37° C. for 24 hours-standard test conditions for the expression of methicillin resistance.

[3] = test system: Coagulase Negative Staphylococci MS
Experimental: as §1, §3

[4] = test system: Staphylococcus aureus MRQR
Experimental: as §1, §3

[5] = test system: Staphylococcus aureus Novb. Res.
Experimental: as §1, §3

[6] = test system: Staphylococcus aureus Oxford
Experimental: as §1, §3

“N-((5S)-3-(4-((7aS)[3H,5H]-3-oxo-1,7a-Dihydropyrrolol[1,2c]oxazol-6-yl)phenyl)-2-oxooxazolidin-5-ylmethyl)acetamide [Example 44]” was tested, and the MIC (Bacillus subtilis) was 0.50 µg/mL, the MIC (Enterococcus faecalis) was 0.50 µg/mL and the MIC [1] was 0.13 µg/mL. For the same substance, the MIC [2] was 0.50 µg/mL, the MIC [3] was 0.13 µg/mL and the MIC [4] was 2.00 µg/mL. For the same substance, the MIC [5] was 0.50 µg/mL and the MIC [6] was 0.25 µg/mL.
